Key:
PDE5 [1] = molecular target: T1, PDE5 (Homo sapiens, UniProt O76074); test: PDE5 inhibition assay (PDE5A1 assay kit); assay type: biochemical
T1 construct: purchased BPS Bioscience
Experimental: The PDE5 assay was determined by using a PDE5A1 assay kit (BPS Bioscience, San Diego, CA, USA). The experiments were conducted following the manufacturer’s protocol. Sildenafil (10 nM) was used as a positive control.

Hep3B cells = test: Cytotoxicity, MTT assay; assay type: cell-based; details: 200 µM, 24 h
Experimental: Figure S19. NOESY spectrum of 2-(2-hydroxyphenyl)oxetan-3-ol (7).
Figure S20. Cytotoxicity of CO hydrosol and its compounds on Hep3B. […]
trans-PO: trans-phenyloxetan-3-ol; cis-PO: cis-phenyloxetan-3-ol; trans-CA: trans- […]
The Hep3B cells were maintained in Dulbecco’s Modified Eagle medium (DMEM; HyClone,Washington, DC, US), supplemented with 10% fetal bovine sera(FBS; Gibco,Waltham, MA, US), 1 mM sodium pyruvate (Corning), and 1% […]
penicillin/streptomycin (Corning) at 37 ℃ in a humidified atmosphere of 5% CO2. Cell viability was measured using a colorimetric MTT assay. Cells were seeded in 96-well plates at a density of 1 × 1 0 4 cells/well. Stock solutions of samples in dimethyl sulfoxide (DMSO; Sigma-Aldrich) were stored in the dark at 4 ℃. Appropriate dilutions were prepared on the day of the experiments. […]
exceed 0.25% (v/v). After 24 h incubated with samples, the culture medium was removed and replaced with fresh medium containing 0.5 mg/mL of MTT (Sigma-Aldrich) for 1 h. The supernatant was removed and added 100 µL DMSO to dissolve formazan. Absorption at 570 nm for each well was measured using an ELISA microplate reader (BioTeck Instruments, Winooski, VT, USA).

PDE5 [2] = system: PDE5; set-up: method as in PMID 18778098; details: cited from earlier work

Row | Compound | IC50 (PDE5 [1]) | inhibition at 0.1 µM (PDE5 [1]; read-out: PDE5 inhibition rate) | inhibition at 0.5 µM (PDE5 [1]; read-out: PDE5 inhibition rate) | inhibition at 1 µM (PDE5 [1]; read-out: PDE5 inhibition rate) | inhibition at 5 µM (PDE5 [1]; 5 µM, read-out: PDE5 inhibition rate) | inhibition at 10 µM (PDE5 [1]; read-out: PDE5 inhibition rate) | cytotoxicity (Hep3B cells) | inhibition at 20 µM (PDE5 [1]; 20 µM, read-out: PDE5 inhibition rate) | IC50 (PDE5 [2]) | PDE5 inhibition rate (PDE5 [2]; 10 µM)
1 | O[C@H]1CO[C@H]1c1ccccc1 (relative stereo) [cis-phenyloxetan-3-ol] | 3.4 µM | 10.8% | 27.1% | 38.1% | 52.1% | 61.9% | no cytotoxicity | – | – | –
2 | O[C@@H]1CO[C@H]1c1ccccc1 (relative stereo) [trans-phenyloxetan-3-ol] | 4.37 µM | 11.5% | 26.1% | 36.7% | – | 58.4% | no cytotoxicity | 65.3% | – | –
3 | COc1ccc(-c2oc3c(CC=C(C)C)c(O[C@@H]4O[C@H](CO)[C@@H](O)[C@H](O)[C@H]4O)cc(O)c3c(=O)c2O[C@@H]2O[C@@H](C)[C@H](O)[C@@H](O)[C@H]2O)cc1 [icariin] | – | – | – | – | – | – | – | – | ~5.9 µM | –
4 | O=C/C=C/c1ccccc1 [trans-cinnamaldehyde] | – | – | – | – | – | – | – | – | – | less than 20%

Reference: article PMC11174926, “Composition Characterization of Cinnamomum osmophloeum Kanehira Hydrosol and Its Enhanced Effects on Erectile Function” (Plants, 2024)
